In patent US8101766B2, “Crystalline form of a biphenyl compound” (Theravance, Inc., priority 2004, dated 2012):

Tests used:
[1] = molecular target: T1, human M3 muscarinic receptor (Homo sapiens, UniProt P20309); experiment: Radioligand binding assay for muscarinic receptors (hM3); conditions: [3H]-NMS displacement, CHO cell membranes
T1 construct: expressed in transfected cells
Method: Cell Culture and Membrane Preparation from Cells Expressing Human M1, M2, M3 and M4 Muscarinic Receptors
CHO cell lines stably expressing cloned human hM1, hM2, hM3 and hM4 muscarinic receptor subtypes, respectively, were grown to near confluency in HAM's F-12 media supplemented with 10% FBS and 250 μg/mL Geneticin. The cells were grown in a 5% CO2, 37° C. incubator and lifted with 2 mM EDTA in dPBS. Cells were collected by 5 minute centrifugation at 650×g, and cell pellets were either stored frozen at −80° C. or membranes were prepared immediately for use. […] The protein concentration of the membrane suspension was determined by the method described in Lowry et al., 1951, Journal of Biochemistry, 193, 265. […]
Radioligand binding assays for cloned human muscarinic receptors were performed in 96-well microtiter plates in a total assay volume of 100 μL. […] Filter plates were rinsed three times with wash buffer (10 mM HEPES) to remove unbound radioactivity. […] The plates were then counted in a PerkinElmer Topcount liquid scintillation counter (PerkinElmer Inc., Wellesley, Mass.). Binding data were analyzed by nonlinear regression analysis with the GraphPad Prism Software package (GraphPad Software, Inc., San Diego, Calif.) using the one-site competition model. […]

[2] = test system: MCh-induced bronchoconstriction; experiment: Bronchoprotection in guinea pig model of acetylcholine-induced bronchoconstriction; type: in vivo; conditions: inhalation
Method: Duration of Bronchoprotection in Guinea Pig Models of Acetylcholine-Induced or Histamine-Induced Bronchoconstriction
To isolate muscarinic antagonist activity in the acetylcholine-induced bronchoconstriction model, the animals were administered propanolol, a compound that blocks β receptor activity, prior to the administration of acetylcholine. Duration of bronchoprotection in the histamine-induced bronchoconstriction model reflects β2 adrenergic receptor agonist activity.
Groups of 6 male guinea pigs (Duncan-Hartley (HsdPoc:DH) Harlan, Madison, Wis.) weighing between 250 and 350 g were individually identified by cage cards. Throughout the study, animals were allowed access to food and water ad libitum.
Test compounds were administered via inhalation over 10 minutes in a whole-body exposure dosing chamber (R&S Molds, San Carlos, Calif.). […] This value was measured gravimetrically by comparing pre- and post-nebulization weights of the filled nebulizer.
The bronchoprotective effects of test compounds administered via inhalation were evaluated using whole body plethysmography at 1.5, 24, 48 and 72 hours post-dose. […]
Once it was determined that baseline values were within the range of 0.3-0.9 mL/cm H2O for compliance and within the range of 0.1-0.199 cm H2O/mL per second for resistance, the pulmonary evaluation was initiated. […]

T1 sequence (P20309 whole entry): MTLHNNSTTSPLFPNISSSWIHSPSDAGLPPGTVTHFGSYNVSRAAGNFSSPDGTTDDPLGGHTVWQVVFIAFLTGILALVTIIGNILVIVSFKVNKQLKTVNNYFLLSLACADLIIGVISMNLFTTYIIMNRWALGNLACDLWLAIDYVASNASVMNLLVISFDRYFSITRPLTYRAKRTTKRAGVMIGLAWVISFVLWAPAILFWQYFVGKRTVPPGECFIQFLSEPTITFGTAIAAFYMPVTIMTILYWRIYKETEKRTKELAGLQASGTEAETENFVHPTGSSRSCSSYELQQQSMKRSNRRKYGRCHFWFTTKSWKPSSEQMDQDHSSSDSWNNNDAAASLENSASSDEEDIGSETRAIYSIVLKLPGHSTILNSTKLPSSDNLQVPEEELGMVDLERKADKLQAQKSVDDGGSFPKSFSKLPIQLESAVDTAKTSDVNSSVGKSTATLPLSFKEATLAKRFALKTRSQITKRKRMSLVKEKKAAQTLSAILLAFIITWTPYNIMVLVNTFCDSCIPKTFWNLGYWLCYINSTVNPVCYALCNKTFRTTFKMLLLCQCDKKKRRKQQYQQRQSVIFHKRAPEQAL

COc1cc(NC(=O)CCN2CCC(OC(=O)Nc3ccccc3-c3ccccc3)CC2)c(Cl)cc1CNC[C@H](O)c1ccc(O)c2[nH]c(=O)ccc12 [compound of formula I, biphenyl-2-ylcarbamic acid 1-[2-(2-chloro-4-{[(R)-2-hydroxy-2-(8-hydroxy-2-oxo-1,2-dihydroquinolin-5-yl)ethylamino]methyl}-5-methoxyphenylcarbamoyl)ethyl]piperidin-4-yl ester]
Ki [1]: < 10 nM
bronchoprotective effect against MCh-induced bronchoconstriction [2]: dose-dependent bronchoprotective effect
